Assay [1] deals with selectivity panel. The note with it: cited from earlier work.
Assay [2] relates to Steroid 5α-reductase. The experiment in a line: Selectivity panel. In kind it is biochemical. The text has this:
(§1) The selectivity of T‐495 at 10 μmol/L against a panel of 106 targets, including receptors, enzymes, ion channels, and transporters, was characterized (Eurofins Panlabs Taiwan Ltd., Taipei, Taiwan).

Assay [3] relates to Catechol-O-Methyl Transferase (COMT). The experiment in a line: Selectivity panel. In kind it is biochemical.
Source text: as §1

For assay [4], the target named is T1, Phosphodiesterase PDE6 (Bos taurus, UniProt P11541+P23439).
T1 construct: purchased Eurofins Panlabs Taiwan Ltd
Kind of assay: Selectivity panel. The format is biochemical.
Source text: as §1

Assay [5] concerns the target T2, Carbonic anhydrase II (Homo sapiens, UniProt P00918).
T2 construct: purchased Eurofins Panlabs Taiwan Ltd
Kind of assay: Selectivity panel. In kind it is biochemical.
Source text: as §1

For assay [6], the target named is T3, Protein tyrosine kinase, EGF receptor (Homo sapiens, UniProt P00533).
T3 construct: purchased Eurofins Panlabs Taiwan Ltd
Kind of assay: Selectivity panel. In kind it is biochemical.
Source text: as §1

Assay [7] relates to Phosphodiesterase PDE3. The experiment in a line: Selectivity panel. The format is biochemical.
Source text: as §1

The target of assay [8] is T4, Lipoxygenase (5-LO) (Homo sapiens, UniProt P09917).
T4 construct: purchased Eurofins Panlabs Taiwan Ltd
T4 sequence (P09917 whole entry): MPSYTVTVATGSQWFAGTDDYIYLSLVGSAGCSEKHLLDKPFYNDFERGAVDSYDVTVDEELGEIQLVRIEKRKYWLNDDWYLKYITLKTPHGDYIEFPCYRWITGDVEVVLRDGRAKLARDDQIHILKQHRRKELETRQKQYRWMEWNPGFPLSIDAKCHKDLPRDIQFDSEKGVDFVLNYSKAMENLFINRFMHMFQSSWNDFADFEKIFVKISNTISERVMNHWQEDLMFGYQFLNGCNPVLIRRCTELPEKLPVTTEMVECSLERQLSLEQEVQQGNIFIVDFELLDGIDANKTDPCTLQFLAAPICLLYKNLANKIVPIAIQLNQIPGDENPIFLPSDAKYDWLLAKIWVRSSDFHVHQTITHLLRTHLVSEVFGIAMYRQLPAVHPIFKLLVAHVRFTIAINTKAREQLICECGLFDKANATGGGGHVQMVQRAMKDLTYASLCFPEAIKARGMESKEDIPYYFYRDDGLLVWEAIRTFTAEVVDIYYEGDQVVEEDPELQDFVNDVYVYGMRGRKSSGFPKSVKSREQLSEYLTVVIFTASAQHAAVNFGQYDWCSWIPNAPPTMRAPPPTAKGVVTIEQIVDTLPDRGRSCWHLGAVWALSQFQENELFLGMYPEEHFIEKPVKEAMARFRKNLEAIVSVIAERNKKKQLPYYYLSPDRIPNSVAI
The experiment in a line: Selectivity panel. In kind it is biochemical.
Source text: as §1

Assay [9] has as its target T5, Phosphodiesterase PDE5 (Homo sapiens, UniProt O76074).
T5 construct: purchased Eurofins Panlabs Taiwan Ltd
Kind of assay: Selectivity panel. In kind it is biochemical.
Source text: as §1

In assay [10] the target is T6, Matrix metalloproteinase-1 (MMP-1) (Homo sapiens, UniProt P03956).
T6 construct: purchased Eurofins Panlabs Taiwan Ltd
T6 sequence (P03956 100-469): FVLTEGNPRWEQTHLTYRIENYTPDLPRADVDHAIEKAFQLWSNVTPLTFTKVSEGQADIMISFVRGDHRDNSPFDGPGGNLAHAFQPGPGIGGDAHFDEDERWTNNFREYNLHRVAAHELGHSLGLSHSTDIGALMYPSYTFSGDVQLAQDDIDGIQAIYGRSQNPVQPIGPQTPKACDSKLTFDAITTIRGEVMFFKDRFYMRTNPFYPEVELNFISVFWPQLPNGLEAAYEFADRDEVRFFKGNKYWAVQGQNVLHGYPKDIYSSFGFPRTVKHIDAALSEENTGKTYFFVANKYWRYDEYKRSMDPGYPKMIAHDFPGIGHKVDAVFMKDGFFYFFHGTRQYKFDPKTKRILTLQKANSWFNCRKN
Kind of assay: Selectivity panel. In kind it is biochemical.
Source text: as §1

Assay [11] concerns the target T7, Nitric oxide synthase, neuronal (nNOS) (Rattus norvegicus, UniProt P29476).
T7 construct: purchased Eurofins Panlabs Taiwan Ltd
The experiment in a line: Selectivity panel. The format is biochemical.
Source text: as §1

The target of assay [12] is T8, Nitric oxide synthase, inducible (iNOS) (Mus musculus, UniProt P29477).
T8 construct: purchased Eurofins Panlabs Taiwan Ltd
Kind of assay: Selectivity panel. The format is biochemical.
Source text: as §1

For assay [13], the target named is T9, Peptidase, factor Xa (Homo sapiens, UniProt P00742).
T9 construct: purchased Eurofins Panlabs Taiwan Ltd
Kind of assay: Selectivity panel. In kind it is biochemical.
Source text: as §1

Assay [14] has as its target T10, Choline esterase, acetyl, ACES (Homo sapiens, UniProt P22303).
T10 construct: purchased Eurofins Panlabs Taiwan Ltd
The experiment in a line: Selectivity panel. In kind it is biochemical.
Source text: as §1

Assay [15] concerns ATPase, Na+/K+, Heart. The experiment in a line: Selectivity panel. In kind it is biochemical.
Source text: as §1

Assay [16] has as its target T11, Monoamine oxidase A (MAO-A) (Homo sapiens, UniProt P21397).
T11 construct: purchased Eurofins Panlabs Taiwan Ltd
Kind of assay: Selectivity panel. The format is biochemical.
Source text: as §1

Assay [17] relates to Protein kinase C (PKC), non-selective. Kind of assay: Selectivity panel. The format is biochemical.
Source text: as §1

In assay [18] the target is T12, Dopamine D2S (Homo sapiens, UniProt P14416).
T12 construct: purchased Eurofins Panlabs Taiwan Ltd
T12 sequence (P14416 1-414 isoform P14416-2): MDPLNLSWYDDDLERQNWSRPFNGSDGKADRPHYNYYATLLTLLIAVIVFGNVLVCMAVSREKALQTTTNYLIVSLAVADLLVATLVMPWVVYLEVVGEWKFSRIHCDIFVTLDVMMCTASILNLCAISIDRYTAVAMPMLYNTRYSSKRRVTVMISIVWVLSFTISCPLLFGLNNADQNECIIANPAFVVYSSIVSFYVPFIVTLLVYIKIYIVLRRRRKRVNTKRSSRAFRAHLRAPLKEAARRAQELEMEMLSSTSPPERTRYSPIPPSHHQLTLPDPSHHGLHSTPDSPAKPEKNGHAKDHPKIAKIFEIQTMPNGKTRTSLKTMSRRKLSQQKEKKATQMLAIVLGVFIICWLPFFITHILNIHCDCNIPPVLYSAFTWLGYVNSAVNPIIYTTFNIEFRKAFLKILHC
The experiment in a line: Selectivity panel. In kind it is binding.
Source text: as §1

The target of assay [19] is T13, Muscarinic M2 (Homo sapiens, UniProt P08172).
T13 construct: purchased Eurofins Panlabs Taiwan Ltd
Kind of assay: Selectivity panel. In kind it is binding.
Source text: as §1

In assay [20] the test system is Androgen (testosterone). The experiment in a line: Selectivity panel. In kind it is binding.
Source text: as §1

The test system of assay [21] is Calcium channel L-type, phenylalkylamine. The experiment in a line: Selectivity panel. The format is binding.
Source text: as §1

The target in assay [22] is T14, Tachykinin NK1 (Homo sapiens, UniProt P25103).
T14 construct: purchased Eurofins Panlabs Taiwan Ltd
The experiment in a line: Selectivity panel. The format is binding.
Source text: as §1

The test system of assay [23] is Glutamate, NMDA, phencyclidine. The experiment in a line: Selectivity panel. The format is binding.
Source text: as §1

Assay [24] addresses T15, Dopamine D2L (Homo sapiens, UniProt P14416).
T15 construct: purchased Eurofins Panlabs Taiwan Ltd
Kind of assay: Selectivity panel. In kind it is binding.
Source text: as §1

Assay [25] has as its target T16, Adenosine A2A (Homo sapiens, UniProt P29274).
T16 construct: purchased Eurofins Panlabs Taiwan Ltd
Kind of assay: Selectivity panel. The format is binding.
Source text: as §1

The test system of assay [26] is Glutamate, kainate. The experiment in a line: Selectivity panel. The format is binding.
Source text: as §1

Assay [27] concerns the target T17, Growth hormone secretagogue (ghrelin) (Homo sapiens, UniProt Q92847).
T17 construct: purchased Eurofins Panlabs Taiwan Ltd
The experiment in a line: Selectivity panel. In kind it is binding.
Source text: as §1

The target of assay [28] is T18, Adrenergic β1 (Homo sapiens, UniProt P08588).
T18 construct: purchased Eurofins Panlabs Taiwan Ltd
T18 sequence (P08588 whole entry): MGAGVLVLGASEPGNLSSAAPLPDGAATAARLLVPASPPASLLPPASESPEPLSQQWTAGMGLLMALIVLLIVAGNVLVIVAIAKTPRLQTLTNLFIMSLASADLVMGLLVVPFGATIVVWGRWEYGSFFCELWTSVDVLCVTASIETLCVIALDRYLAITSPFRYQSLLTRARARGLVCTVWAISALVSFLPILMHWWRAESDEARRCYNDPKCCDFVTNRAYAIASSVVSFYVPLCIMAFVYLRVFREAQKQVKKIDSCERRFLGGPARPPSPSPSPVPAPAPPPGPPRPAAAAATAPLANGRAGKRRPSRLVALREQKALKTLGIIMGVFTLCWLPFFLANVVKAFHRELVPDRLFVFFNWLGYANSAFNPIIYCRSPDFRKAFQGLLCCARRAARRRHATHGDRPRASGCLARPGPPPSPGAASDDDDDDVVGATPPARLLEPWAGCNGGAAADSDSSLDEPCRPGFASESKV
Kind of assay: Selectivity panel. The format is binding.
Source text: as §1

Assay [29] has as its target T19, Serotonin 5-HT2C (Homo sapiens, UniProt P28335).
T19 construct: purchased Eurofins Panlabs Taiwan Ltd
The experiment in a line: Selectivity panel. The format is binding.
Source text: as §1

The subject of assay [30] is Estrogen Receptor (non-selective). Kind of assay: Selectivity panel. In kind it is binding.
Source text: as §1

Assay [31] has as its target T20, Transporter, norepinephrine (NET) (Homo sapiens, UniProt P23975).
T20 construct: purchased Eurofins Panlabs Taiwan Ltd
Kind of assay: Selectivity panel. In kind it is binding.
Source text: as §1

Assay [32] has as its target T21, Endothelin ETA (Homo sapiens, UniProt P25101).
T21 construct: purchased Eurofins Panlabs Taiwan Ltd
Kind of assay: Selectivity panel. In kind it is binding.
Source text: as §1

Assay [33] deals with GABAB, non-selective. Kind of assay: Selectivity panel. In kind it is binding.
Source text: as §1

Assay [34] concerns the target T22, Bradykinin B1 (Homo sapiens, UniProt P46663).
T22 construct: purchased Eurofins Panlabs Taiwan Ltd
The experiment in a line: Selectivity panel. The format is binding.
Source text: as §1

The subject of assay [35] is Transporter, vesicular monoamine (non-selective). Kind of assay: Selectivity panel. In kind it is binding.
Source text: as §1

Assay [36] addresses T23, Transporter, serotonin (SERT) (Homo sapiens, UniProt P31645).
T23 construct: purchased Eurofins Panlabs Taiwan Ltd
The experiment in a line: Selectivity panel. In kind it is binding.
Source text: as §1

In assay [37] the target is T24, Vasopressin V1A (Homo sapiens, UniProt P37288).
T24 construct: purchased Eurofins Panlabs Taiwan Ltd
The experiment in a line: Selectivity panel. The format is binding.
Source text: as §1

Assay [38] concerns Serotonin 5-HT4. The experiment in a line: Selectivity panel. The format is binding.
Source text: as §1

Assay [39] addresses T25, Angiotensin AT2 (Homo sapiens, UniProt P50052).
T25 construct: purchased Eurofins Panlabs Taiwan Ltd
The experiment in a line: Selectivity panel. In kind it is binding.
Source text: as §1

In assay [40] the target is T26, Tachykinin NK3 (Homo sapiens, UniProt P29371).
T26 construct: purchased Eurofins Panlabs Taiwan Ltd
T26 sequence (P29371 whole entry): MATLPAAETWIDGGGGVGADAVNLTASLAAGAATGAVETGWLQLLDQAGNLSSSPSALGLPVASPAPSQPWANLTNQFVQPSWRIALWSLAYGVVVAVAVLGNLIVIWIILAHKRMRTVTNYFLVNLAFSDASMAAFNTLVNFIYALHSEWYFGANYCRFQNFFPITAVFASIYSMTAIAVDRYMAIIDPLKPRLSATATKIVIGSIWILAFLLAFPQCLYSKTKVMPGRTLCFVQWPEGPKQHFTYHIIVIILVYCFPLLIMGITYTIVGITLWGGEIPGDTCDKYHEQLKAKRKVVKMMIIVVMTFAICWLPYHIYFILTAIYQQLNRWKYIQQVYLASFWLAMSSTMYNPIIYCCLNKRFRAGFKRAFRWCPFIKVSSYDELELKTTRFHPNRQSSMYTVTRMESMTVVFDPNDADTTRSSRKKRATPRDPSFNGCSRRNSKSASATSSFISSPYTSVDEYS
Kind of assay: Selectivity panel. In kind it is binding.
Source text: as §1

Assay [41] has as its system CaMKIIα‐tTA/A53T α‐syn dTg mice. The experiment in a line: Y‐maze task. In kind it is in vivo, mouse. Particulars: 3 mg/kg p.o. The protocol: The Y‐maze was fabricated from gray plastic and consisted of three arms (40 cm long, 12 cm high, 3 cm wide at the bottom, and 10 cm wide at the top) with an angle of 120°. Visual cues were placed outside each arm, and the apparatus was illuminated at 10 lux. […] An arm entry was defined as all four paws of the mouse being in the arm, and the sequence of arm entries was monitored with a video camera and counted manually. An alternation was defined as successive entries into the three arms on overlapping triplet sets.36 The percentage of alternation was calculated as the ratio of actual to possible alternations (total number of arm entries minus 2) multiplied by 100.

T19 sequence (P28335 33-458): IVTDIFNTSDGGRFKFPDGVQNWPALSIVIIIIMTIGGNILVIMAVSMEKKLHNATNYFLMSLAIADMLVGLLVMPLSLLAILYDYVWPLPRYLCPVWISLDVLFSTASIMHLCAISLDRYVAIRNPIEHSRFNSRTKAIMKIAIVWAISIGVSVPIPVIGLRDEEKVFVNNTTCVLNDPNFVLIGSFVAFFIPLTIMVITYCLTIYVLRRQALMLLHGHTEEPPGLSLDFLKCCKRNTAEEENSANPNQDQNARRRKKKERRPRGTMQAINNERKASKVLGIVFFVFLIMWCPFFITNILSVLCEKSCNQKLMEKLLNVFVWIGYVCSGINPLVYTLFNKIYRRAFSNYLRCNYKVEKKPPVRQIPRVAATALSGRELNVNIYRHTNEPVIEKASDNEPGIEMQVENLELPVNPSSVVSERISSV
T22 sequence (P46663 whole entry): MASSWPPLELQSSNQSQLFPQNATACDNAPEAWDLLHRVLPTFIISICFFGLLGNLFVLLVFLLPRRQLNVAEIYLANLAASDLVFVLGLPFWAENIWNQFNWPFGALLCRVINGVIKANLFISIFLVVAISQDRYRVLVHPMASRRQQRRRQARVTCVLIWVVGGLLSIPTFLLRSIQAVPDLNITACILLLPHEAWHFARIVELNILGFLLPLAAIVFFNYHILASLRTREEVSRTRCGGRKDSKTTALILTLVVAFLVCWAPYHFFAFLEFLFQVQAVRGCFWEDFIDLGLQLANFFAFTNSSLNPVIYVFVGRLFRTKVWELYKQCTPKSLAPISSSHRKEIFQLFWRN
T25 sequence (P50052 whole entry): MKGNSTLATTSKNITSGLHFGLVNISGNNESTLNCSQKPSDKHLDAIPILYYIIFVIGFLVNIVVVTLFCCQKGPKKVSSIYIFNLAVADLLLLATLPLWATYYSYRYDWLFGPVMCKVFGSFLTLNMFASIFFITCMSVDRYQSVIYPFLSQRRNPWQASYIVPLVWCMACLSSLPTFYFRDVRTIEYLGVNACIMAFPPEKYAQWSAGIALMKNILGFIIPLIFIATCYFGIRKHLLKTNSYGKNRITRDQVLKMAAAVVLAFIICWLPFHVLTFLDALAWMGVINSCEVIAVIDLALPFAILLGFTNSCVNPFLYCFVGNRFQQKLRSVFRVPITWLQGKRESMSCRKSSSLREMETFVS
T20 sequence (P23975 whole entry): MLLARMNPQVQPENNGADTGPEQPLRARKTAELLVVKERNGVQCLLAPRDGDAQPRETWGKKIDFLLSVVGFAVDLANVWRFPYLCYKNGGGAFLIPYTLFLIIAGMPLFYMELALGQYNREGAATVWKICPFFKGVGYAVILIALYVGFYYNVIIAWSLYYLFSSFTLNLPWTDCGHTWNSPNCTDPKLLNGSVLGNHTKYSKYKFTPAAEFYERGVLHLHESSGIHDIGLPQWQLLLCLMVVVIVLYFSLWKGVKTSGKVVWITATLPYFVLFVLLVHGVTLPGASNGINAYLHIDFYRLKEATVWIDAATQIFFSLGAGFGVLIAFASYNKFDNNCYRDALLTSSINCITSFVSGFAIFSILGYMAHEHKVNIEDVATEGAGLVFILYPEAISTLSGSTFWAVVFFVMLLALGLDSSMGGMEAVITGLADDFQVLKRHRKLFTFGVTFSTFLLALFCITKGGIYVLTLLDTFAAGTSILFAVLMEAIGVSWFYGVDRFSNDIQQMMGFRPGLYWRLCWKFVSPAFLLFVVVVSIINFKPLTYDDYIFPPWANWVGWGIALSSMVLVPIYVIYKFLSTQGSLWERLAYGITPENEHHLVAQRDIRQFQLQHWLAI
T21 sequence (P25101 21-427): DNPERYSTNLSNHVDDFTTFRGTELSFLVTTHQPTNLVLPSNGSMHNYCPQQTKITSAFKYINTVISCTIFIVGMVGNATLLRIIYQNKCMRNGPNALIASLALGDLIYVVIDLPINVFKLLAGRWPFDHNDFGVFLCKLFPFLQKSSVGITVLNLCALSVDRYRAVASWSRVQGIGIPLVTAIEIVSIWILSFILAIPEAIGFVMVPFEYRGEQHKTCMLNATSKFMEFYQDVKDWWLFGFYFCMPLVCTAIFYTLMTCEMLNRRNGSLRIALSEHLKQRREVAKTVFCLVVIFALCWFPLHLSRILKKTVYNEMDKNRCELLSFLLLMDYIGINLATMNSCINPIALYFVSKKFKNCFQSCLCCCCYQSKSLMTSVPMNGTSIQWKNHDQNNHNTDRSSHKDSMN
T17 sequence (Q92847 whole entry): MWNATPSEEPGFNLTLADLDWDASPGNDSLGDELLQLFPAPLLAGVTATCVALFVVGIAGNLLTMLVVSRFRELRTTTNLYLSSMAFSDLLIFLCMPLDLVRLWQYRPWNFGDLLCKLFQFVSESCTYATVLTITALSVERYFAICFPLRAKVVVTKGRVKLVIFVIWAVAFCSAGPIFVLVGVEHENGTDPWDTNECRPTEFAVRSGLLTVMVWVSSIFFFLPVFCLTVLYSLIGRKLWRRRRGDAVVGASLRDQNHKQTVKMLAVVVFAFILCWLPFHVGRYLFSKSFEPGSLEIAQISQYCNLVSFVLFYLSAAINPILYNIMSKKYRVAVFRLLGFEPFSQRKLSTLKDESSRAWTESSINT

As for `Cc1ccc(Cc2cc3c(=O)n([C@H]4CCCC[C@@H]4O)cnc3c3ccccc23)cn1` [MK‐7622, 3‐((1S,2S)‐2‐hydroxycyclohexyl)‐6‐((6‐methylpyridin‐3‐yl)methyl)benzo[h]quinazolin‐4(3H)‐one, reference compound], the “selectivity in a selectivity panel” value in assay [1] is “exhibited inhibitory activities only against 5‐lipoxygenase and phosphodiesterase 4”.

`Cc1c(Cc2ccc(Cl)nc2)cc2c(c1Cl)OCN([C@H]1CCC[C@@H]1O)C2=O` [T‐495, 8‐chloro‐6‐((6‐chloropyridin‐3‐yl)methyl)‐3‐((1S,2S)‐2‐hydroxycyclopentyl)‐7‐methyl‐2,3‐dihydro‐4H‐1,3‐benzoxazin‐4‐one]: the “% inhibition at 10 μM” value in assay [2] was 2%; in [3], 2%; in assay [7] it was 2%; in assay [15], 4%; in assay [17], 0%; in assay [20] it was 3%. Moreover, the “% inhibition at 10 μM” value in assay [21] amounted to 19%; in assay [23], 3%; in assay [26] it was 13%; in assay [30] it was 5%; in assay [33], 4%; in assay [35], 12%. In assay [38], the “% inhibition at 10 μM” value worked out at 22%. The inhibition at 10 µM in assay [4] was 6%; in assay [5], -9%; in assay [6], 9%; in [8], 15%; in assay [9], 48%; in [10], 5%. Besides, the inhibition at 10 µM is 5% in assay [11]; 0% in assay [12]; -2% in assay [13]; -2% in [14]; 36% in assay [16]; 15% in assay [18]. In addition, the inhibition at 10 µM was 8% in assay [19]; -2% in assay [22]; 4% in assay [24]; -4% in assay [25]; 8% in assay [27]; 4% in assay [28]. The inhibition at 10 µM in assay [29] is 10%; in [31], 17%; in [32], -4%; in assay [34], 2%; in [36], 17%; in assay [37] it was 7%. Besides, the inhibition at 10 µM was found to be 0% in [39] and 5% in assay [40]. Also, the “reduced percentage of alternations” value in [41] is given as “significantly reversed”.

The record behind these values is publication PMC6986443, “T‐495, a novel low cooperative M1 receptor positive allosteric modulator, improves memory deficits associated with cholinergic dysfunction and is characterized by low gastrointestinal side effect risk” (Pharmacology Research & Perspectives, 2020).
